# Assay results: the supplement of paper PMC10307832
# Key:
# Test in all cases: relative viability (nuclei count vs DMSO), 5 days (fraction); higher = more cells survive
# NCI-H2087 = test system: NCI-H2087
# Outline: (§1)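 Lung cancer cell lines in 1536-well plates got either a single drug or a fixed anchor-drug dose together with five library-drug doses (not always all listed) in √10 steps, by pin tool, on the day after seeding. Nuclei were counted after 5 days, and relative viability is the treated-to-vehicle ratio of nuclei counts. Values are medians of duplicate plates.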
# SK-MES-1 = test system: SK-MES-1
# Outline: as §1
# PC-14 = test system: PC-14
# Outline: as §1
# NCI-H2085 = test system: NCI-H2085
# Outline: as §1
# LXF-289 = test system: LXF-289
# Outline: as §1
# NCI-H1563 = test system: NCI-H1563
# Outline: as §1
# NCI-H520 = test system: NCI-H520
# Outline: as §1
# NCI-H1993 = test system: NCI-H1993
# Outline: as §1
# NCI-H1355 = test system: NCI-H1355
# Outline: as §1
# NCI-H1666 = test system: NCI-H1666
# Outline: as §1
# NCI-H1755 = test system: NCI-H1755
# Outline: as §1
# NCI-H2170 = test system: NCI-H2170
# Outline: as §1
# NCI-H1792 = test system: NCI-H1792
# Outline: as §1
# LU99A = test system: LU99A
# Outline: as §1
# COR-L23 = test system: COR-L23
# Outline: as §1
# BEN = test system: BEN
# Outline: as §1
# NCI-H460 = test system: NCI-H460
# Outline: as §1
# CAL-12T = test system: CAL-12T
# Outline: as §1
# NCI-H1651 = test system: NCI-H1651
# Outline: as §1
# HCC-44 = test system: HCC-44
# Outline: as §1
# NCI-H1437 = test system: NCI-H1437
# Outline: as §1
# NCI-H1650 = test system: NCI-H1650
# Outline: as §1
smiles,measurement,setting,value
CCNC(=O)c1noc(-c2cc(C(C)C)c(O)cc2O)c1-c1ccc(CN2CCOCC2)cc1 [Luminespib] + N=C(N)NC(=N)NCCc1ccccc1 [Phenformin] (partner 250 µM),relative viability,NCI-H2087; first compound 0.002 µM,0.493
same,relative viability,NCI-H2087; first compound 0.006325 µM,0.362
same,relative viability,NCI-H2087; first compound 0.02 µM,0.267
same,relative viability,NCI-H2087; first compound 0.06325 µM,0.136
same,relative viability,NCI-H2087; first compound 0.2 µM,0.115
same,relative viability,SK-MES-1; first compound 0.002 µM,0.642
same,relative viability,SK-MES-1; first compound 0.006325 µM,0.623
same,relative viability,SK-MES-1; first compound 0.02 µM,0.702
same,relative viability,SK-MES-1; first compound 0.06325 µM,0.189
same,relative viability,SK-MES-1; first compound 0.2 µM,0.193
same,relative viability,PC-14; first compound 0.002 µM,0.618
same,relative viability,PC-14; first compound 0.006325 µM,0.393
same,relative viability,PC-14; first compound 0.02 µM,0.196
same,relative viability,PC-14; first compound 0.06325 µM,0.0634
same,relative viability,PC-14; first compound 0.2 µM,0.0788
same,relative viability,NCI-H2085; first compound 0.002 µM,0.807
same,relative viability,NCI-H2085; first compound 0.006325 µM,0.713
same,relative viability,NCI-H2085; first compound 0.02 µM,0.408
same,relative viability,NCI-H2085; first compound 0.06325 µM,0.221
same,relative viability,NCI-H2085; first compound 0.2 µM,0.225
same,relative viability,LXF-289; first compound 0.002 µM,0.429
same,relative viability,LXF-289; first compound 0.006325 µM,0.482
same,relative viability,LXF-289; first compound 0.02 µM,0.593
same,relative viability,LXF-289; first compound 0.06325 µM,0.163
same,relative viability,LXF-289; first compound 0.2 µM,0.0721
same,relative viability,NCI-H1563; first compound 0.002 µM,0.66
same,relative viability,NCI-H1563; first compound 0.006325 µM,0.649
same,relative viability,NCI-H1563; first compound 0.02 µM,0.597
same,relative viability,NCI-H1563; first compound 0.06325 µM,0.455
same,relative viability,NCI-H1563; first compound 0.2 µM,0.465
same,relative viability,NCI-H520; first compound 0.002 µM,0.634
same,relative viability,NCI-H520; first compound 0.006325 µM,0.537
same,relative viability,NCI-H520; first compound 0.02 µM,0.248
same,relative viability,NCI-H520; first compound 0.06325 µM,0.138
same,relative viability,NCI-H520; first compound 0.2 µM,0.191
same,relative viability,NCI-H1993; first compound 0.002 µM,0.46
same,relative viability,NCI-H1993; first compound 0.006325 µM,0.474
same,relative viability,NCI-H1993; first compound 0.02 µM,0.476
same,relative viability,NCI-H1993; first compound 0.06325 µM,0.394
same,relative viability,NCI-H1993; first compound 0.2 µM,0.36
same,relative viability,NCI-H1355; first compound 0.002 µM,0.431
same,relative viability,NCI-H1355; first compound 0.006325 µM,0.456
same,relative viability,NCI-H1355; first compound 0.02 µM,0.382
same,relative viability,NCI-H1355; first compound 0.06325 µM,0.254
same,relative viability,NCI-H1355; first compound 0.2 µM,0.17
same,relative viability,NCI-H1666; first compound 0.002 µM,0.583
same,relative viability,NCI-H1666; first compound 0.006325 µM,0.533
same,relative viability,NCI-H1666; first compound 0.02 µM,0.574
same,relative viability,NCI-H1666; first compound 0.06325 µM,0.532
same,relative viability,NCI-H1666; first compound 0.2 µM,0.538
same,relative viability,NCI-H1755; first compound 0.002 µM,0.609
same,relative viability,NCI-H1755; first compound 0.006325 µM,0.552
same,relative viability,NCI-H1755; first compound 0.02 µM,0.552
same,relative viability,NCI-H1755; first compound 0.06325 µM,0.268
same,relative viability,NCI-H1755; first compound 0.2 µM,0.14
same,relative viability,NCI-H2170; first compound 0.002 µM,0.405
same,relative viability,NCI-H2170; first compound 0.006325 µM,0.398
same,relative viability,NCI-H2170; first compound 0.02 µM,0.376
same,relative viability,NCI-H2170; first compound 0.06325 µM,0.236
same,relative viability,NCI-H2170; first compound 0.2 µM,0.158
same,relative viability,NCI-H1792; first compound 0.002 µM,0.265
same,relative viability,NCI-H1792; first compound 0.006325 µM,0.263
same,relative viability,NCI-H1792; first compound 0.02 µM,0.101
same,relative viability,NCI-H1792; first compound 0.06325 µM,0.0593
same,relative viability,NCI-H1792; first compound 0.2 µM,0.077
same,relative viability,LU99A; first compound 0.002 µM,0.818
same,relative viability,LU99A; first compound 0.006325 µM,0.71
same,relative viability,LU99A; first compound 0.02 µM,0.535
same,relative viability,LU99A; first compound 0.06325 µM,0.167
same,relative viability,LU99A; first compound 0.2 µM,0.125
same,relative viability,COR-L23; first compound 0.002 µM,0.456
same,relative viability,COR-L23; first compound 0.006325 µM,0.367
same,relative viability,COR-L23; first compound 0.02 µM,0.457
same,relative viability,COR-L23; first compound 0.06325 µM,0.0668
same,relative viability,COR-L23; first compound 0.2 µM,0.0674
same,relative viability,BEN; first compound 0.002 µM,0.259
same,relative viability,BEN; first compound 0.006325 µM,0.268
same,relative viability,BEN; first compound 0.02 µM,0.273
same,relative viability,BEN; first compound 0.06325 µM,0.216
same,relative viability,BEN; first compound 0.2 µM,0.199
same,relative viability,NCI-H460; first compound 0.002 µM,0.616
same,relative viability,NCI-H460; first compound 0.006325 µM,0.458
same,relative viability,NCI-H460; first compound 0.02 µM,0.0329
same,relative viability,NCI-H460; first compound 0.06325 µM,0.0168
same,relative viability,NCI-H460; first compound 0.2 µM,0.0232
same,relative viability,CAL-12T; first compound 0.002 µM,0.578
same,relative viability,CAL-12T; first compound 0.006325 µM,0.512
same,relative viability,CAL-12T; first compound 0.02 µM,0.15
same,relative viability,CAL-12T; first compound 0.06325 µM,0.101
same,relative viability,CAL-12T; first compound 0.2 µM,0.0963
same,relative viability,NCI-H1651; first compound 0.002 µM,0.298
same,relative viability,NCI-H1651; first compound 0.006325 µM,0.293
same,relative viability,NCI-H1651; first compound 0.02 µM,0.304
same,relative viability,NCI-H1651; first compound 0.06325 µM,0.108
same,relative viability,NCI-H1651; first compound 0.2 µM,0.141
same,relative viability,HCC-44; first compound 0.002 µM,0.245
same,relative viability,HCC-44; first compound 0.006325 µM,0.163
same,relative viability,HCC-44; first compound 0.02 µM,0.119
same,relative viability,HCC-44; first compound 0.06325 µM,0.0759
same,relative viability,HCC-44; first compound 0.2 µM,0.11
same,relative viability,NCI-H1437; first compound 0.002 µM,0.325
same,relative viability,NCI-H1437; first compound 0.006325 µM,0.3
same,relative viability,NCI-H1437; first compound 0.02 µM,0.358
same,relative viability,NCI-H1437; first compound 0.06325 µM,0.173
same,relative viability,NCI-H1437; first compound 0.2 µM,0.154
same,relative viability,NCI-H1650; first compound 0.002 µM,0.48
same,relative viability,NCI-H1650; first compound 0.006325 µM,0.219
same,relative viability,NCI-H1650; first compound 0.02 µM,0.165
same,relative viability,NCI-H1650; first compound 0.06325 µM,0.15
same,relative viability,NCI-H1650; first compound 0.2 µM,0.159
